{"source": "patent US20110268807A1", "about": "“Biodegradable Microspheres and Methods of Use Thereof” (priority 2008, published 2011)", "key": {"[1]": {"test": "Atropine release per cycle (atropine content in filtrate), nanoparticles", "type": "physicochemical", "details": "FIG. 17B", "description": "FIGS. 17A and 17B depict atropine release. […] The first sharp decrease in atropine release would be related to the excess atropine in solution. The slow release characteristic of the second slope would be the drug release associated with nanoparticle degradation."}, "[2]": {"test": "Release of atropine from hydrogel in medium at 37° C., static conditions", "type": "physicochemical", "description": "FIG. 16 depicts release rate of atropine from hydrogel. […] Hydrogel for the second release test (B) was soaked in excess drug solution to reach maximum swelling. Almost no drug retention was observed; therefore, the release is approximately zero."}}}
{"smiles": "CN1[C@@H]2CC[C@H]1C[C@@H](OC(=O)C(CO)c1ccccc1)C2", "note": "(stereo partly shown) [atropine]", "values": [{"measurement": "cumulative release percentage per cycle", "setting": "[1]", "value": "all the atropine was release by the seventh cycle"}, {"measurement": "atropine release from hydrogel", "setting": "[2]; first preliminary test (A): hydrogel absorbed all of the drug solution, medium at 37° C., static conditions", "value": 68, "unit": "%"}, {"measurement": "time course of atropine release from hydrogel", "setting": "[2]; first preliminary test (A), burst effect", "value": "most of which occurred during the first two hours"}, {"measurement": "atropine release from hydrogel", "setting": "[2]; second release test (B): hydrogel soaked in excess drug solution to maximum swelling, almost no drug retention", "value": "approximately zero"}]}
